# In patent US11325909B2, “Crystalline 2-amino-2-(hydroxymethyl)propane-1,3-diol salt of 4-(4-(1-isopropyl-7-OXO-1,4,6,7-tetrahydrospiro[indazole-5,4′-piperidine]-1′-carbonyl)-6-methoxypryridin-2-YL)benzoic acid” (Pfizer Inc., priority 2017, dated 2022):
# Counter-ions that a name gives are not always drawn.
# Legend:
# [1] = Pharmacokinetic studies, oral dose, male (fasted) cynomolgus monkeys; format: in vivo
# Procedure: Pharmacokinetic studies were conducted in male (fasted) cynomolgus monkeys (n=2 for each formulation). An oral pill was prepared to compare Form 1 and Form 2. […] The dosage was administered as an oral dose containing 2, 5, or 10 mg/kg, respectively. Serial blood samples were collected at the 0, 0.25, 0.5, 1, 2, 4, 7, and 24-hour time points via the femoral vein by syringe and transferred into K3EDTA vacutainers. Blood samples were then centrifuged, the plasma harvested and stored at −20° C. or −80° C. until analysis.
# The appropriate amount of either Form 1 or Form 2 was transferred into a mortar. The corresponding amount of the excipient blend was then geometrically added to the mortar and mixed thoroughly with the respective Form 1 or Form 2 using a pestle. The mixture was transferred to a container, and blended on a Turbula mixer for 5 minutes to provide a blend containing the respective Form 1 or Form 2 mixed with the excipients.
# The tablets were compressed to achieve 100 mg tablet weight, with target tablet hardness between 4 and 9 kp at the press speed of 15 tablets per minute.
# To prepare a representative batch size of 1 L of 0.5% (w/v) methylcellulose (Methocel® A4M) solution, approximately 0.4 L of deionized water was heated to 80-90° C. after which 5 grams of methylcellulose (Methocel® A4M) was added and mixed thoroughly until the particles were thoroughly wetted. The mixture was then removed from heat. Cold water (0.6 L) was then added, while continuously stirring in the ice bath, until all the methylcellulose particles were dissolved.
# The solid powder was triturated (lumps broken) using a pestle. Two mL of 0.5% w/v methylcellulose (Methocel® A4M) was added to the powder drop-wise. The vehicle and free acid were well mixed to form a smooth paste. The remaining of the vehicle was added in small aliquots while mixing until a uniform suspension was obtained. […] Twenty-two microliter of Polysorbate 80 (Tween® 80) was added to the suspension.
# The solid powder was triturated (lumps broken) using a pestle. Small amount of 0.5% w/v methylcellulose (Methocel® A4M) was added to the powder to form a smooth paste. The remaining of the vehicle was added in small aliquots while mixing until a uniform suspension was obtained. The suspension was transferred to a container and made up to final volume of 50 mL.
# [2] = Thermodynamic solubility (24 hours agitation at RT, filtration, nitrogen detector); format: physicochemical; conditions: for Solubility pH 1.2: pH 1.2, 24 hours at RT; for Solubility pH 6.5: pH 6.5, 24 hours at RT; for Solubility pH 7.4: pH 7.4, 24 hours at RT
# Procedure: Four hundred fifty microliters (450 μL) of the desired medium was added to the filter and agitated for 24 hours at RT. After 24 hours, the sample was filtered and the filtrates were injected into a nitrogen detector for quantification.
# pH 1.2: Weigh out 1.0 g of NaCl and transfer to a beaker. Add about 450 mL HPLC-grade water to dissolve the NaCl. […] Transfer the solution to a 500 mL volumetric flask and bring to 500 mL with HPLC-grade water.
# pH 6.5: Titrate about 250 mL of 50 mM NaPO4 dibasic with about 500 mL of 50 mM NaPO4 monobasic to pH 6.5. The ending total volume is the volume at the point the solution has a pH 6.5 is reached when adding 50 mM NaPO4 monobasic to the 50 mM NaPO4 dibasic.
# pH 7.4: Titrate about 200 mL of 50 mM NaPO4 dibasic with about 50 mL of 50 mM NaPO4 monbasic to pH 7.4. The ending total volume is the volume at the point the solution has a pH 7.4 is reached when adding 50 mM NaPO4 monobasic to the 50 mM NaPO4 dibasic.
# [3] = Hygroscopicity observed during salt evaluation (mainly through visualization); format: physicochemical
# Excerpt: Determining whether a solid would form was just one factor in this evaluation. […] See, e.g., C. Saal, A. Becker, Euro.
# [4] = Thermodynamic stability of crystalline forms versus water activity; format: physicochemical; conditions: ambient temperature; 0.2 corresponds to 20% RH
# [5] = Hygroscopicity by dynamic vapor sorption; format: physicochemical; conditions: at 90% RH/25° C.
# Procedure: Hygroscopicity was measured using a dynamic vapor sorption instrument manufactured by TA Instruments or Surface Measurement Systems. A sample of each Form was exposed to incremental RH levels until either a weight equilibrium (seen as a plateau) of ≤0.001% weight change in 5 minutes was met, or a maximum time of 120 minutes at each RH level. After the shorter of 0.001% weight equilibrium in 5 minutes or 120 minutes, the sample was then exposed to the next RH level. There was an initial drying period where weight may have been lost with Form 1, no drying was utilized for Form 2. The process starts at 10% RH with RH increased to 20% RH and then a 10% RH increase after each interval (0.001% in 5 minutes equilibrium or 120 min, whichever occurred first). At 90% RH, the RH was reversed back to 10% RH using the same equilibration criteria. The hygroscopicity is measured as a function of the percent weight gain measured at 90% RH.
# [6] = Immediate Release Tablet, 2 mg/kg
molecule,measurement,setting,value
"COc1cc(C(=O)N2CCC3(CC2)CC(=O)c2c(cnn2C(C)C)C3)cc(-c2ccc(C(=O)O)cc2)n1 [Compound 1, 4-(4-(1-isopropyl-7-oxo-1,4,6,7-tetrahydrospiro[indazole-5,4′-piperidine]-1′-carbonyl)-6-methoxypyridin-2-yl)benzoic acid]",AUC/Dose,"[1]; Suspension, 10 mg/kg",4120 ng*h/ml/mpk
same,Solubility pH 1.2,[2]; listed as Free acid - batch A,"11.8 (avg, n = 2, μM"
same,Solubility pH 1.2,[2]; listed as Free acid - batch B,"13.0 (avg, n = 2, μM"
same,Solubility pH 1.2,[2]; listed as Free acid - batch C,<0.5 μM
same,Solubility pH 6.5,[2]; listed as Free acid - batch A,"44.7 (avg, n = 2, μM"
same,Solubility pH 6.5,[2]; listed as Free acid - batch B,"222.0 (avg, n = 2, μM"
same,Solubility pH 6.5,[2]; listed as Free acid - batch C,19.6 μM
same,Solubility pH 7.4,[2]; listed as Free acid - batch A,"255.0 (avg, n = 2, μM"
same,Solubility pH 7.4,[2]; listed as Free acid - batch B,"1700.0 (avg, n = 2, μM"
same,Solubility pH 7.4,[2]; listed as Free acid - batch C,194.0 μM
O=S(=O)(O)O [sulfuric acid],hygroscopicity of the isolated solid (observation),[3],very hygroscopic
sodium,hygroscopicity of the isolated solid (observation),[3],too hygroscopic
"COc1cc(C(=O)N2CCC3(CC2)CC(=O)c2c(cnn2C(C)C)C3)cc(-c2ccc(C(=O)O)cc2)n1 [Form 1, 4-(4-(1-isopropyl-7-oxo-1,4,6,7-tetrahydrospiro[indazole-5,4′-piperidine]-1′-carbonyl)-6-methoxypyridin-2-yl)benzoic acid anhydrous tris salt]",water activity at which the form is thermodynamically stable,[4],< 0.2
same,AUC/Dose,[1]; [6],5750 ng*h/ml/mpk
same,AUC/Dose,"[1]; Suspension, 5 mg/kg",7240 ng*h/ml/mpk
same,hygroscopicity (percent weight gain),[5],about 1%
same,Solubility pH 1.2,[2]; listed as Tris (Form 1),1320.0 μM
same,Solubility pH 6.5,[2]; listed as Tris (Form 1),3980.0 μM
same,Solubility pH 7.4,[2]; listed as Tris (Form 1),4770.0 μM
[Ca] [Calcium],Solubility pH 1.2,[2],13.5 μM
same,Solubility pH 6.5,[2],1500.0 μM
same,Solubility pH 7.4,[2],5050.0 μM
same,hygroscopicity of the isolated solid (observation),[3],too hygroscopic
[K+] [potassium],hygroscopicity of the isolated solid (observation),[3],too hygroscopic
COc1cc(C(=O)N2CCC3(CC2)CC(=O)c2c(cnn2C(C)C)C3)cc(-c2ccc(C(=O)O)cc2)n1 [Form 2],water activity at which the form is thermodynamically stable,[4],> 0.2
same,AUC/Dose,[1]; [6],5650 ng*h/ml/mpk
same,hygroscopicity (percent weight gain),[5],about 1%
